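Results reflect a 48-hour exposure of cells in 96-well plates to compound at five concentrations. Here, GI50 denotes the concentration required for 50% inhibition of growth.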 Calls of active or inactive are those of the source. No stated cut-off is given here; in the data, active = GI50 up to about 1.1 µM and inactive = higher.
Experiments:
Assay in all cases: NCI tumour cell line growth inhibition, 48 h
786-0 = system: 786-0
A498 = system: A498
A549 = system: A549
ACHN = system: ACHN
BT-549 = system: BT-549
CAKI-1 = system: CAKI-1
CCRF-CEM = system: CCRF-CEM
COLO 205 = system: COLO 205
DU-145 = system: DU-145
EKVX = system: EKVX
HCC 2998 = system: HCC 2998
HCT-116 = system: HCT-116
HCT-15 = system: HCT-15
HL-60 = system: HL-60
HOP-92 = system: HOP-92
HT-29 = system: HT-29
Hs-578T = system: Hs-578T
IGROV-1 = system: IGROV-1
K562 = system: K562
KM12 = system: KM12
LOX IMVI = system: LOX IMVI
M14 = system: M14
MCF7 = system: MCF7
MDA-MB-231 = system: MDA-MB-231
MDA-MB-435 = system: MDA-MB-435
MDA-N = system: MDA-N
MOLT-4 = system: MOLT-4
Malme-3M = system: Malme-3M
NCI-H226 = system: NCI-H226
NCI-H23 = system: NCI-H23
NCI-H460 = system: NCI-H460
NCI-H522 = system: NCI-H522
NCI/ADR-RES = system: NCI/ADR-RES
OVCAR-3 = system: OVCAR-3
OVCAR-4 = system: OVCAR-4
OVCAR-5 = system: OVCAR-5
OVCAR-8 = system: OVCAR-8
PC-3 = system: PC-3
RPMI-8226 = system: RPMI-8226
SF-268 = system: SF-268
SF-295 = system: SF-295
SF-539 = system: SF-539
SK-MEL-28 = system: SK-MEL-28
SK-MEL-2 = system: SK-MEL-2
SK-MEL-5 = system: SK-MEL-5
SK-OV-3 = system: SK-OV-3
SN12C = system: SN12C
SNB-19 = system: SNB-19
SNB-75 = system: SNB-75
SW-620 = system: SW-620
T47D = system: T47D
TK-10 = system: TK-10
U-251 = system: U-251
UACC-257 = system: UACC-257
UACC-62 = system: UACC-62
UO-31 = system: UO-31
RXF 393 = system: RXF 393
HOP-62 = system: HOP-62
SR = system: SR

Measured: GI50

COc1c2ccoc2nc2c(OC)c(OCC(O)C(C)(C)O)ccc12 (stereo not drawn) [EVOXINE]
inactive: 786-0 > 100 µM | A498 > 100 µM | A549 > 100 µM | ACHN > 100 µM | BT-549 > 100 µM | CAKI-1 > 100 µM | CCRF-CEM > 100 µM | COLO 205 > 100 µM | DU-145 > 100 µM | EKVX > 100 µM | HCC 2998 > 100 µM | HCT-116 > 100 µM | HL-60 > 100 µM | HOP-92 > 100 µM | HT-29 > 100 µM | Hs-578T > 100 µM | IGROV-1 70 µM | K562 > 100 µM | KM12 > 100 µM | LOX IMVI > 100 µM | M14 > 100 µM | MCF7 > 100 µM | MDA-MB-231 75.3 µM | MDA-MB-435 > 100 µM | MDA-N > 100 µM | MOLT-4 > 100 µM | Malme-3M > 100 µM | NCI-H226 > 100 µM | NCI-H23 > 100 µM | NCI-H460 > 100 µM | NCI-H522 > 100 µM | NCI/ADR-RES > 100 µM | OVCAR-3 > 100 µM | OVCAR-4 > 100 µM | OVCAR-5 > 100 µM | OVCAR-8 > 100 µM | PC-3 > 100 µM | RPMI-8226 > 100 µM | SF-268 > 100 µM | SF-295 > 100 µM | SF-539 > 100 µM | SK-MEL-28 > 100 µM | SK-MEL-2 > 100 µM | SK-MEL-5 > 100 µM | SK-OV-3 > 100 µM | SN12C > 100 µM | SNB-19 > 100 µM | SNB-75 63.1 µM | SW-620 > 100 µM | T47D > 100 µM | TK-10 > 100 µM | U-251 > 100 µM | UACC-257 > 100 µM | UACC-62 > 100 µM | UO-31 > 100 µM
> 100 µM: HCT-15

Nc1cccc2nnccc12
inactive: 786-0 > 100 µM | A549 > 100 µM | ACHN > 100 µM | BT-549 > 100 µM | CAKI-1 > 100 µM | CCRF-CEM > 100 µM | COLO 205 > 100 µM | DU-145 > 100 µM | EKVX > 100 µM | HCT-116 > 100 µM | HL-60 > 100 µM | HOP-92 > 100 µM | HT-29 > 100 µM | Hs-578T > 100 µM | IGROV-1 > 100 µM | KM12 > 100 µM | M14 > 100 µM | MCF7 > 100 µM | MDA-MB-231 > 100 µM | MDA-MB-435 > 100 µM | MDA-N > 100 µM | Malme-3M > 100 µM | NCI-H226 > 100 µM | NCI-H23 > 100 µM | NCI-H460 > 100 µM | NCI-H522 19 µM | NCI/ADR-RES > 100 µM | OVCAR-5 > 100 µM | OVCAR-8 > 100 µM | PC-3 > 100 µM | RPMI-8226 > 100 µM | RXF 393 > 100 µM | SF-268 > 100 µM | SF-295 > 100 µM | SF-539 > 100 µM | SK-MEL-2 > 100 µM | SK-MEL-5 > 100 µM | SK-OV-3 > 100 µM | SN12C > 100 µM | SNB-19 > 100 µM | SNB-75 > 100 µM | SW-620 > 100 µM | T47D > 100 µM | TK-10 > 100 µM | U-251 > 100 µM | UACC-257 > 100 µM | UACC-62 > 100 µM | UO-31 > 100 µM
> 100 µM: HCT-15

Cc1cc(O)nc(/N=C(\N)Nc2ccc(Cl)cc2)n1
inactive: 786-0 > 100 µM | A498 > 100 µM | A549 > 100 µM | ACHN > 100 µM | BT-549 > 100 µM | CAKI-1 > 100 µM | CCRF-CEM > 100 µM | DU-145 > 100 µM | EKVX > 100 µM | HCC 2998 > 100 µM | HCT-116 > 100 µM | HL-60 > 100 µM | HOP-62 > 100 µM | HOP-92 > 100 µM | HT-29 > 100 µM | Hs-578T > 100 µM | IGROV-1 > 100 µM | K562 > 100 µM | KM12 > 100 µM | LOX IMVI > 100 µM | M14 > 100 µM | MDA-MB-231 > 100 µM | MDA-MB-435 > 100 µM | MDA-N > 100 µM | MOLT-4 > 100 µM | Malme-3M > 100 µM | NCI-H226 > 100 µM | NCI-H23 > 100 µM | NCI-H460 > 100 µM | NCI-H522 > 100 µM | NCI/ADR-RES > 100 µM | OVCAR-3 > 100 µM | OVCAR-5 > 100 µM | OVCAR-8 > 100 µM | PC-3 > 100 µM | RPMI-8226 > 100 µM | RXF 393 > 100 µM | SF-268 > 100 µM | SF-295 > 100 µM | SK-MEL-28 > 100 µM | SK-MEL-2 > 100 µM | SK-MEL-5 > 100 µM | SN12C > 100 µM | SNB-19 > 100 µM | SR > 100 µM | SW-620 > 100 µM | T47D > 100 µM | TK-10 > 100 µM | U-251 > 100 µM | UACC-257 > 100 µM | UACC-62 > 100 µM | UO-31 > 100 µM
> 100 µM: HCT-15
